The target in one data set is T1, Human AMPK α2β2γ1 (Homo sapiens, UniProt O43741+P54646).
T1 construct: The full length cDNAs of human AMPK β2 (NM_005399.3) and human AMPK α2 (NM_006252.3) were inserted; the full length cDNA of human AMPK γ1 (NM_002733.3) had been inserted into pET28b(+); 6xHis (N); made in house; host or cells: Escherichia coli BL21 CodonPlus (DE3)-RIL
Kind of data set: Test Example 2: evaluation of activators of AMP-activated protein kinase (mobility-shift assay, FL-Peptide 7). It is filed as biochemical. As to conditions: human AMPK α2β2γ1 phosphorylated with CaMKK2; for EC150 (compound concentration showing 150% relative to the control (100%)): 25° C., 2 hours, 1% DMSO; for Emax: control = 100%, read-out: Emax (maximum rate of increase in activity within the measurement range). Here is the method:
The full length cDNAs of human AMPK β2 (NM_005399.3) and human AMPK α2 (NM_006252.3) were inserted into the MCS1 and MCS2 of the pETDuet-1 vector to prepare a human AMPK β2 and human AMPK α2 (6× His tag at the 5′ terminus) expressing plasmid. The plasmid was contransfected with an expression plasmid, in which the full length cDNA of human AMPK γ1 (NM_002733.3) had been inserted into pET28b(+), into BL21 CodonPlus (DE3)-RIL to obtain an expression strain. The expression strain was cultured in TB medium, followed by induction with 0.5 mM IPTG, and cultured at 25° C. for 3 hours and then harvested. After ultrasonication, supernatant was collected and applied to Histrap FF column (GE) and RESOUECE Q column (GE) to prepare 12.5 mg of purified sample containing three types of subunit from 1.8 L of broth.
An expression vector, in which the full length cDNA of human CAMKK β (NM_172226.1) had been inserted into pGEX-6P-3, was transfected into BL21 Star (DE3). The expression strain was cultured in TB medium, followed by induction with 0.5 mM IPTG, and cultured at 25° C. for 3 hours and then harvested. After ultrasonication, supernatant was collected and applied to GSTrap FF column (GE) to prepare 14 mg of GST-fused CAMKK […] from 720 ml of broth.
Thus, phosphorylation treatment was carried out as pretreatment.
Human AMPK α2β2γ1 in an amount to give a conversion rate of approximately 10% by reaction for 2 hours, and CaMKK2 in an amount capable of sufficiently imparting activity to AMPK for one hour were mixed in a buffer solution consisting of a 50 mM HEPES-NaOH buffer solution (pH 7.0), 100 mM NaCl, 5 mM magnesium chloride, 0.1% bovine serum albumin, 0.2 mM sodium orthovanadate(V), 1 mM ethylene glycol-bis(2-aminoethyl ether)-N,N,N′,N′-tetraacetic acid (EGTA), 5 mM disodium β-glycerophosphate, 1 mM dithiothreitol and 0.2 mM ATP, and the obtained liquid was left to stand at 25° C. for 1 to 1.5 hours to sufficiently phosphorylate AMPK.
After that, to the enzyme liquid, which had been subjected to phosphorylation treatment, a compound dissolved in DMSO was added so as to have a 1% DMSO concentration. The obtained liquid was left to stand for 10 minutes.
To the liquid, a substrate solution consisting of a 50 mM HEPES-NaOH buffer solution (pH 7.0), 100 mM NaCl, 10 mM magnesium chloride, 0.1% bovine serum albumin, 0.2 mM sodium orthovanadate(V), 1 mM ethylene glycol-bis(2-aminoethyl ether)-N,N,N′,N′-tetraacetic acid (EGTA), 5 mM disodium β-glycerophosphate, 2 mM dithiothreitol, 0.4 mM ATP and 3 μM FL-Peptide 7 (manufactured by Caliper Life Sciences, Inc.) was added in equal amount (10 μl in total). The obtained liquid was allowed to react at 25° C. for 2 hours, and 10 μl of 20 mM EDTA was then added thereto to stop the reaction.
To detect phosphorylated fluorescent substrates, the reaction liquid was applied to a measuring device, LabChip EZ Reader II manufactured by Caliper Life Science, Inc., for detecting fluorescence by using differences in mobility due to differences in charge. The setting conditions for the device were pressure, −1.5 PSI; upstream voltage, −2250 V; downstream voltage, −400 V; post sample buffer sip time, 40 seconds; final delay, 120 seconds; and peak order, Product First.
A conversion rate was calculated from the peak heights of the resulting substrate and product. The conversion rate when not containing a compound was used as a control, and a concentration dependent curve was made by plotting the rate of increase in activity to the control at each concentration of a compound. The compound concentration showing 150% relative to the control (100%) was used as the EC 150 value, and the maximum rate of increase in activity within the measurement range was used as Emax.

T1 sequence (P54646 whole entry): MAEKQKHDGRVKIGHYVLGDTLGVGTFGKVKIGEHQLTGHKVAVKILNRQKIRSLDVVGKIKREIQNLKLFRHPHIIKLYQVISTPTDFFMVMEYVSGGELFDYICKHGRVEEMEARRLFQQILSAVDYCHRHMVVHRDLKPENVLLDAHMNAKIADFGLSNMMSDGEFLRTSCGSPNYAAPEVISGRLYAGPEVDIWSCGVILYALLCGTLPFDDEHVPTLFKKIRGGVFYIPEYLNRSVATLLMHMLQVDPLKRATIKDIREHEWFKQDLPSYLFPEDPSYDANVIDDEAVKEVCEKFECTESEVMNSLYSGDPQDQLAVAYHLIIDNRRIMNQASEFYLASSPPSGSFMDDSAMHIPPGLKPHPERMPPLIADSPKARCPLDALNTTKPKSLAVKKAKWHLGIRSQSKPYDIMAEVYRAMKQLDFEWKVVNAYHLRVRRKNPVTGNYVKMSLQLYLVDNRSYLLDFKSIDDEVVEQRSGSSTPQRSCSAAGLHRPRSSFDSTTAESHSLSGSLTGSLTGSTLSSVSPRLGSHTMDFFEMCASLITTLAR
T1 sequence (O43741 whole entry): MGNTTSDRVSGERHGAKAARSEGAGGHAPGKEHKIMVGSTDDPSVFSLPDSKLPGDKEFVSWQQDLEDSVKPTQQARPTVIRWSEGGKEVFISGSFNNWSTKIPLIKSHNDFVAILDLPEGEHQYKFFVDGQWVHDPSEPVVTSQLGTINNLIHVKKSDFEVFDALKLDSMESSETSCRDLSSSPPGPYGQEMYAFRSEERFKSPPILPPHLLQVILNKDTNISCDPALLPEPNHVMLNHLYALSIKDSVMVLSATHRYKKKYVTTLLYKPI
T1 sequence (P54619 whole entry partner): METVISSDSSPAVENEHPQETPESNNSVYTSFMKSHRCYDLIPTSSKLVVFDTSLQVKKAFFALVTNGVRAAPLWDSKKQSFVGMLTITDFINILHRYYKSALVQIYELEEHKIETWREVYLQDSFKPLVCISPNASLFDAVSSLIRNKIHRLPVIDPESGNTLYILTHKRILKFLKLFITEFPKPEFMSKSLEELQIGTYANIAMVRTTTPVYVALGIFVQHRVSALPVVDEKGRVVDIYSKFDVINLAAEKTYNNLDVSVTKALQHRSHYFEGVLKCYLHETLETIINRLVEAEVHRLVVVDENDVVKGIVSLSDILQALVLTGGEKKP

`Cc1ccc(Oc2nc3nc(-c4ccc(N5CCOCC5)cc4)c(Cl)cc3[nH]2)cc1C(=O)O` [A−1, reference compound]: at Human AMPK α2β2γ1, the “EC150 (compound concentration showing 150% relative to the control (100%))” value was 130 nM and the Emax (in general, the greatest response seen or fitted, relative to the assay's reference) was 394%.
On the same counts, the results for `Cc1ccc(Oc2[nH]c3cc(Cl)c(-c4ccc(N5CCOCC5)cc4)cc3c2C#N)cc1C(=O)O` [Compound I-1-6] are 76 nM and 618%.
On the same counts, the results for `N#Cc1c(O[C@@H]2CO[C@H]3[C@@H]2OC[C@H]3O)[nH]c2cc(Cl)c(-c3ccc(C4=CCC(C(=O)O)CC4)cc3)cc12` (stereo partly shown) [Compound I-1-8] are 39 nM and 580%.
Regarding `N#Cc1c(O[C@@H]2CO[C@H]3[C@@H]2OC[C@H]3O)[nH]c2cc(Cl)c(-c3ccc(C4=CCN(C(=O)CO)CC4)cc3)cc12` [Compound I-1-9], on Human AMPK α2β2γ1, the “EC150 (compound concentration showing 150% relative to the control (100%))” value is 20 nM and the Emax was determined as 559%.
The like results for `CC(=O)NC/C=C/c1ccc(-c2cc3c(C#N)c(O[C@@H]4CO[C@H]5[C@@H]4OC[C@H]5O)[nH]c3cc2Cl)cc1` [Compound I-2-9] were, in that order, 34 nM and 503%.
On to `N#Cc1cc2[nH]c(O[C@@H]3CO[C@H]4[C@@H]3OC[C@H]4O)c(C#N)c2cc1-c1ccc(N2CCOCC2)cc1` [Compound I-2-17], for which, on Human AMPK α2β2γ1, the “EC150 (compound concentration showing 150% relative to the control (100%))” value was found to be 98 nM and the maximal effect (Emax) was found to be 587%.
The like results for `CC(=O)NC(C)(C)c1ccc(Oc2cc3nc(-c4c(F)cc(N5CCOCC5)cc4F)ccc3[nH]2)cc1` [Compound I-3-9] were, in that order, 39 nM and 446%.
The like results for `O[C@@H]1CO[C@H]2[C@@H]1OC[C@H]2Oc1cc2nc(-c3ccc(N4CCOCC4)cc3)c(Cl)cc2[nH]1` [Compound I-3-15] were, in that order, 1.9 nM and 559%.
With `O[C@@H]1CO[C@H]2[C@@H]1OC[C@H]2Oc1cc2nc(-c3ccc(-c4ccccc4)cc3)c(Cl)cc2[nH]1` [Compound I-3-18], on Human AMPK α2β2γ1, the “EC150 (compound concentration showing 150% relative to the control (100%))” value is recorded as 4.1 nM and the Emax came out at 489%.
With `O=C(O)C1CC=C(c2ccc(-c3nc4cc(O[C@@H]5CO[C@H]6[C@@H]5OC[C@H]6O)[nH]c4cc3Cl)cc2)CC1` (stereo partly shown) [Compound I-3-21], at Human AMPK α2β2γ1, the “EC150 (compound concentration showing 150% relative to the control (100%))” value was 0.21 nM and the Emax was 787%.
The like results for `CC(C)(C(=O)O)[C@H]1CC[C@H](Oc2cc3nc(-c4ccc(N5CCOCC5)cc4)c(Cl)cc3[nH]2)CC1` [Compound I-3-22] were, in that order, 120 nM and 264%.
On the same counts, the results for `O[C@@H]1CO[C@H]2[C@@H]1OC[C@H]2Oc1cc2nc(-c3c(F)cc(N4CCOCC4)cc3F)c(F)cc2[nH]1` [Compound I-3-24] are 8.8 nM and 729%.
The like results for `CC(C)(CO)C(=O)N1CCC(Oc2cc3nc(-c4ccc(N5CCOCC5)cc4)c(Cl)cc3[nH]2)CC1` [Compound I-3-28] were, in that order, 54 nM and 510%.
`O[C@@H]1CO[C@H]2[C@@H]1OC[C@H]2Oc1cc2nc(-c3c(F)cc(C4=CCOCC4)cc3F)ccc2[nH]1` [Compound I-3-32]: on Human AMPK α2β2γ1, the “EC150 (compound concentration showing 150% relative to the control (100%))” value was determined as 2.6 nM and the maximum response (Emax) worked out at 661%.
For the compound `Clc1cc2[nH]c(O[C@@H]3CO[C@@H]4CCO[C@@H]43)cc2nc1-c1ccc(N2CCOCC2)cc1` [Compound I-3-37], the phototoxicity test result in “Phototoxicity test” is given as “negative”.
As for `CC(C)(CO)C(=O)N1CCC(Oc2cc3nc(-c4ccc(C5=CCC(C(=O)O)CC5)cc4)c(Cl)cc3[nH]2)CC1` (stereo not shown) [Compound I-3-38], at Human AMPK α2β2γ1, the maximal response (Emax) was determined as 560%.
For `N#Cc1c(O[C@@H]2CO[C@H]3[C@@H]2OC[C@H]3O)[nH]c2ccc(-c3c(F)cc(C4=CCOCC4)cc3F)nc12` [Compound I-3-45], at Human AMPK α2β2γ1, the “EC150 (compound concentration showing 150% relative to the control (100%))” value is recorded as 26 nM and the maximal effect (Emax) worked out at 694%.
The like results for `CC(=O)NC1CC=C(c2ccc(-c3nc4cc(O[C@@H]5CO[C@H]6[C@@H]5OC[C@H]6O)[nH]c4cc3Cl)cc2)CC1` (stereo partly shown) [Compound I-3-46] were, in that order, 0.48 nM and 750%.
Regarding `CS(=O)(=O)NC1CC=C(c2ccc(-c3nc4cc(O[C@@H]5CO[C@H]6[C@@H]5OC[C@H]6O)[nH]c4cc3Cl)cc2)CC1` (stereo partly shown) [Compound I-3-47], on Human AMPK α2β2γ1, the “EC150 (compound concentration showing 150% relative to the control (100%))” value amounted to 0.76 nM and the Emax stood at 727%.
On the same counts, the results for `N#Cc1c(O[C@@H]2CO[C@H]3[C@@H]2OC[C@H]3O)[nH]c2ccc(-c3c(F)cc(N4CC[C@@H](O)C4)cc3F)nc12` [Compound I-3-49] are 18 nM and 848%.
The like results for `Cc1ccc(Oc2cc3nc(-c4ccc(N5CCOCC5)cc4)c(Cl)cc3[nH]2)cc1C(=O)O` [Compound I-3-50] were, in that order, 63 nM and 435%.

The values are drawn from patent US9890119B2, “Indole and azaindole derivative having AMPK-activating activity” (SHIONOGI & CO., LTD., priority 2013, dated 2018).
